Test results from patent US5292736A, “Morpholinoalkylindenes as antiglaucoma agents” (Sterling Winthrop Inc., priority 1993, dated 1994).
Like-named read-outs stand apart in the source and are kept apart here.

Key:
[1] = test system: acetylcholine-induced abdominal constriction; assay: acetylcholine-induced abdominal constriction test (ACH), oral; type: in vivo; details: oral administration
Source text: Data obtained by the oral administration of the invention in the acetylcholine-induced abdominal constriction test (ACH), a measure of analgesic effectiveness, are expressed in the table below as the ED50 in mg/kg or as the percent inhibition at a given dose level in mg/kg. The acetyl choline-induced abdominal constriction test (ACH) is described in Brit. J. Pharmacol., 32: 295 (1968) and U.S. Pat. No. 4,581,534, incorporated herein by reference.

cannabinoid receptor = target: T1, cannabinoid receptor (Rattus norvegicus, UniProt P20272); assay: cannabinoid receptor binding test (CR), predictive of antiglaucoma activity
T1 construct: Brain tissue from rats was homogenized; from tissue; host or cells: rat brain, washed homogenate membranes
T1 sequence (P20272 whole entry): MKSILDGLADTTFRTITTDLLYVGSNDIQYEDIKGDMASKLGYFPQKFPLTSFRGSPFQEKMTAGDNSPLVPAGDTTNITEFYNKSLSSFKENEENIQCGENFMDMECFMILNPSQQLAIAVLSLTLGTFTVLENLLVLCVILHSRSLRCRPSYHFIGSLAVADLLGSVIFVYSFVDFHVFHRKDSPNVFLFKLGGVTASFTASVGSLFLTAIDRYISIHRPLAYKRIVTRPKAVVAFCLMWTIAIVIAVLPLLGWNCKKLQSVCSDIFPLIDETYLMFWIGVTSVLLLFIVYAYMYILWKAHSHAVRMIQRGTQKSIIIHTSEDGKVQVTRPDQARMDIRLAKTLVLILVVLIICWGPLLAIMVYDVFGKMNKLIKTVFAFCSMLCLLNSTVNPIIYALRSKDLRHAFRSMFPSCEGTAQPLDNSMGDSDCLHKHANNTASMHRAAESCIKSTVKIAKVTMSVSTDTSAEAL
Description: (§1) In standard biological test procedures, compounds of formula I were tested for analgesic and cannabinoid receptor activity. The mouse vas deferens test correlates well with analgesic activity and has long been used to screen for such activity. Cannabinoid receptor binding is characteristic and predictive of the efficacy of intraocular pressure reducing compounds and was thus used to test the compounds of formula I for antiglaucoma activity.
Data from the cannabinoid receptor binding test (CR), predictive of antiglaucoma activity, was obtained as follows:
Brain tissue from rats was homogenized in ice cold 20 mM HEPES-NaOH, pH 7.0, diluted approximately 1:100 (w/v) with the same buffer and centrifuged at 48,000 g for 10 minutes at 4° C. The pellet was washed by resuspension and centrifugation as above. The final pellet was suspended (1:120 w/v) in 20 mM HEPES-NaOH, pH 7.0 and stored on ice for use within 1 hour.
Compounds (10 mM) were solubilized in a mixture of 0.3 N methane sulfonic acid - 13.5% ethanol. Cannabinoids were dissolved in absolute ethanol. Other compounds were dissolved in dimethylsulfoxide (DMSO). All compounds were diluted in 20 mM HEPES, pH 7.0 containing 5 mg/ml bovine serum albumin (BSA).
The final assay concentration of BSA was 1.0 mg/ml in these experiments. Final assay concentrations of ≤50 mM ethanol, ≤1×10^-3 N methane sulfonic acid, ≤2.5 mM ethanol+3×10^-4 N methane sulfonic acid or ≤3% DMSO had no effect on specific binding. The possible effects of all vehicles were controlled in each assay.
The assay was started with the addition of homogenate and the tubes incubated at 30° C. for 90 min in a shaking waterbath. Each tube contained 20 mM HEPES-NaOH buffer, pH 7.0, 1.0 mg/ml BSA, competing drug or vehicle, and 100-125 μg membrane protein in a 1 ml incubation volume. Saturation studies were conducted over 3 log units of radioligand concentration (0.1-22 nM). Specific binding was defined as the difference in binding in the presence and absence of 1.0 μM unlabeled 2-[(3-chloro-4-hydroxyphenyl)amino]benzene methanol, a molecule that is known to […] bind to cannabinoid receptors.
Samples were filtered over Whatman GF/B filters with 20 ml of 20 mM HEPES, pH 7.0, containing 0.5 mg/ml BSA. Radioactivity on the filters, expressed in dpm, was measured by liquid scintillation spectrometry. Assays were conducted in triplicate and experiments were repeated at least three times.
The results for the CR test are IC50 concentrations (in nM) or % inhibition at 1 μM and 30 μM concentrations.

mouse vas deferens = mouse vas deferens test (MVD), screening for analgesic activity; type: cell-based; details: considered active at 5.0 μM or less
Description: as §1
The mouse vas deferens test (MVD), a means of screening for analgesic activity, is disclosed in U.S. Pat. No. 4,840,950, which is incorporated herein by reference.

[2] = 1 μM; rat brain membranes, pH 7.0, 30° C., 90 min
[3] = rat brain membranes, pH 7.0, 30° C., 90 min; read-out: CR IC50
[4] = 30 μM; rat brain membranes, pH 7.0, 30° C., 90 min

## Oc1ccc(C=C2C=C(CCN3CCOCC3)c3ccccc32)c2ccccc12 [Example 19]
[1]
  ED50: 2.7 mg/kg
Cannabinoid receptor; [2]
  inhibition at 1 µM: 97%

## COc1ccc(C=C2C(C)=C(CCN3CCOCC3)c3ccccc32)c2ccccc12 [Example 16]
[1]
  Ach percent inhibition at 100 mg/kg: 30%
Mouse vas deferens
  IC50: 0.35 µM

## C(=C1C=C(CCN2CCOCC2)c2ccccc21)c1cccc2ccccc12 [Example 9]
[1]; 10 mg/kg
  Ach percent inhibition at 10 mg/kg: 83%
Cannabinoid receptor; [3]
  IC50: 0.001 µM
Mouse vas deferens
  IC50: 0.007 µM

## C(=C1C=C(CCN2CCOCC2)c2ccccc21)c1cccc2[nH]ccc12 [Example 18]
[1]
  ED50: 15 mg/kg
Mouse vas deferens
  IC50: 0.31 µM

## CSc1ccc(C=C2C=C(CCN3CCOCC3)c3ccccc32)cc1 [Example 4]
[1]
  ED50: 50 mg/kg
Cannabinoid receptor; [2]
  inhibition at 1 µM: 96%

## C(=C1C=C(CCCN2CCOCC2)c2ccccc21)c1cccc2ccccc12 [Example 12]
[1]
  Ach percent inhibition at 100 mg/kg: 30%
Cannabinoid receptor; [2]
  inhibition at 1 µM: 97%
Mouse vas deferens
  IC50: 0.096 µM

## Fc1ccc(C=C2C=C(CCCN3CCOCC3)c3ccccc32)cc1 [Example 5]
[1]
  ED50: 52 mg/kg
Cannabinoid receptor; [4]
  inhibition at 30 µM: 5%

## COc1ccc(C=C2C=C(CCN3CCOCC3)c3ccccc32)c2ccccc12 [Example 8]
[1]
  ED50: 3.2 mg/kg
Cannabinoid receptor; [3]
  IC50: 0.0009 µM
Mouse vas deferens
  IC50: 0.008 µM

## CC1=C(CCN2CCOCC2)c2ccccc2C1=Cc1ccnc2ccccc12 [Example 11]
[1]
  Ach percent inhibition at 100 mg/kg: 40%
Mouse vas deferens
  IC50: 1.65 µM

## COc1ccc(C=C2C(C)=C(CCN3CCOCC3)c3ccccc32)cc1 [Example 3]
[1]
  Ach percent inhibition at 100 mg/kg: 30%
Cannabinoid receptor; [2]
  inhibition at 1 µM: 45%

## C(=C1C=C(CCN2CCOCC2)c2ccccc21)c1c2ccccc2cc2ccccc12 [Example 20]
Mouse vas deferens
  IC50: 0.812 µM

## N#Cc1ccc(C=C2C=C(CCN3CCOCC3)c3ccccc32)cc1 [Example 17]
[1]
  ED50: 100 mg/kg
Cannabinoid receptor; [2]
  inhibition at 1 µM: 76%

## C(=C1C=C(CCN2CCOCC2)c2ccccc21)c1ccccc1 [Example 2]
[1]
  ED50: 65 mg/kg
Cannabinoid receptor; [2]
  inhibition at 1 µM: 33%
Mouse vas deferens
  IC50: 0.079 µM

## COc1ccc(C(=O)OC(=C2C=C(CCN3CCOCC3)c3ccccc32)c2ccc(OC)cc2)cc1 [Example 22, (4-methoxyphenyl)[3-(2-[4-morpholinyl)ethyl)-1H-inden-1-ylidine]methyl 4-methoxy benzoate]
[1]
  Ach percent inhibition at 100 mg/kg: 10%
Cannabinoid receptor; [2]
  inhibition at 1 µM: 51%

## COc1ccc(C=C2C=C(CCN3CCOCC3)c3ccccc32)cc1OC [Example 13]
[1]
  ED50: 19 mg/kg
Cannabinoid receptor; [3]
  IC50: 0.028 µM
Mouse vas deferens
  IC50: 0.019 µM

## CC1=C(CCN2CCOCC2)c2ccccc2C1=Cc1cccc2ccccc12 [Example 10]
[1]
  ED50: 34 mg/kg
Cannabinoid receptor; [3]
  IC50: 0.01 µM
Mouse vas deferens
  IC50: 0.045 µM

## C[S+]([O-])c1ccc(C=C2C=C(CCN3CCOCC3)c3ccccc32)cc1 (centres unmarked) [Example 21, 4-[2-[[1-[4-(methylsulfinyl)phenyl]methylene]-1H-inden-3-yl]ethyl]morpholine]
[1]
  ED50: 25 mg/kg
Mouse vas deferens
  IC50: 0.193 µM

## Fc1ccccc1C=C1C=C(CCN2CCOCC2)c2ccccc21 [Example 7]
[1]
  ED50: 86 mg/kg
Cannabinoid receptor; [4]
  inhibition at 30 µM: 78%

## COc1ccc(C=C2C=C(CCCN3CCOCC3)c3ccccc32)c2ccccc12 [Example 15]
[1]
  Ach percent inhibition at 100 mg/kg: 10%
Cannabinoid receptor; [3]
  IC50: 0.012 µM

## CN(C)c1ccc(C=C2C=C(CCN3CCOCC3)c3ccccc32)cc1 [Example 6]
[1]
  ED50: 103 mg/kg
Cannabinoid receptor; [4]
  inhibition at 30 µM: 88%

## COc1ccc(C=C2C=C(CCN3CCOCC3)c3ccccc32)cc1 [Example 1, 4-[2-[1-[(4-methoxyphenyl)methylene]-1H-inden-3-yl)ethyl]morpholine]
[1]
  ED50: 46 mg/kg
Cannabinoid receptor; read-out: CR IC50; rat brain membranes, pH 7.0, 30° C., 90 min
  IC50: 0.058 µM
Mouse vas deferens
  IC50: 0.08 µM

## C(=Cc1ccccc1)C=C1C=C(CCN2CCOCC2)c2ccccc21 [Example 14]
[1]
  Ach percent inhibition at 100 mg/kg: 20%
Cannabinoid receptor; [2]
  inhibition at 1 µM: 68%
